Read-outs that look alike come from different tables or passages of the source.
Assays:
[1] = test system: actin-cofilin interaction in fibroblasts; details: ref Shoji et al., 2012; cited from earlier work
[2] = test system: p44/42 MAPK in pancreatic acini; experiment: p44/42 MAPK activation (pT202/Y204 Western blot) in pancreatic acini; type: cell-based; details: Rattus norvegicus, Cytochalasin D 10 µM or Paclitaxel 5 µM, 3 h, range
Protocol: Pancreatic acini preparations were obtained by collagenase digestion as previously described ([Bissonnette et al., 1984]; [Sato et al., 1989]; [Ramos-Alvarez and Jensen, 2018]). […] Isolated acini and CCK1-R/Panc-1 cells (M&M 2.2.1) were also preincubated with two SSH1 inhibitors, D3 (25 μM, 1 h) ([Li et al., 2015]) or SE (50 μM, 3 h for acini; 24 h for CCK1-R/Panc-1 cells) ([Lee et al., 2017]). After preincubation, 1 mL aliquots of dispersed acini were incubated at 37°C for 3–15 min with CCK-8 (0.3 nM or 100 nM), for 5–15 min with TPA (1 µM) or without stimulants, used as control. Cells were lysed in lysis buffer (50 mM Tris/HCl pH 7.5, 150 mM NaCl, 1% Triton X-100, 1% deoxycholate, 0.1% sodium azide, 1 mM EGTA, 0.4 mM EDTA, 0.2 mM sodium orthovanadate, 1 mM PMSF, and one protease inhibitor tablet per 10 mL). After sonication, lysates were centrifuged at 10,000×g for 15 min at 4°C and protein concentration was measured using the Bio-Rad protein assay reagent. Finally, cells were processed as below for Western blotting.
Western blotting and immunoprecipitation were performed as described previously ([Ramos-Alvarez and Jensen, 2018]). Whole cell lysates were subjected to SDS-PAGE using 4%–20% Tris–Glycine gels. […] The intensity of the protein bands was measured using GeneTools software from Syngene, which were assessed in the linear detection range. […]

[3] = test system: LIMK (pT508) in pancreatic acini; experiment: LIMK phosphorylation (pT508 LIMK Western blot) in isolated rat pancreatic acini; type: cell-based
Protocol: Pancreatic acini preparations were obtained by collagenase digestion as previously described ([Bissonnette et al., 1984]; [Sato et al., 1989]; [Ramos-Alvarez and Jensen, 2018]). After collagenase digestion, dispersed acini were preincubated with different inhibitors in standard incubation solution ([Ramos-Alvarez and Jensen, 2018]; [Ramos-Ãlvarez et al., 2020]) for 3 h at 37°C under conditions specific for PKD/PKC, Src, PI3K, MAPKs, SSH1, LIMK, cofilin, other phosphatases and PAK4 inhibitors, as described previously ([Ramos-Alvarez and Jensen, 2018]; [Ramos-Ãlvarez et al., 2020]). Isolated acini and CCK1-R/Panc-1 cells (M&M 2.2.1) were also preincubated with two SSH1 inhibitors, D3 (25 μM, 1 h) ([Li et al., 2015]) or SE (50 μM, 3 h for acini; 24 h for CCK1-R/Panc-1 cells) ([Lee et al., 2017]). After preincubation, 1 mL aliquots of dispersed acini were incubated at 37°C for 3–15 min with CCK-8 (0.3 nM or 100 nM), for 5–15 min with TPA (1 µM) or without stimulants, used as control. Cells were lysed in lysis buffer (50 mM Tris/HCl pH 7.5, 150 mM NaCl, 1% Triton X-100, 1% deoxycholate, 0.1% sodium azide, 1 mM EGTA, 0.4 mM EDTA, 0.2 mM sodium orthovanadate, 1 mM PMSF, and one protease inhibitor tablet per 10 mL). After sonication, lysates were centrifuged at 10,000×g for 15 min at 4°C and protein concentration was measured using the Bio-Rad protein assay reagent. Finally, cells were processed as below for Western blotting.
Both concentrations of CCK-8 were used because CCK-8 is reported to have different responses with physiological and supraphysiological concentrations contributing to physiological and pathophysiological processes such as pancreatitis ([Dufresne et al., 2006]).
Western blotting and immunoprecipitation were performed as described previously ([Ramos-Alvarez and Jensen, 2018]). Whole cell lysates were subjected to SDS-PAGE using 4%–20% Tris–Glycine gels. […] Finally, membranes were then washed again twice in blocking buffer for 4 min, twice in washing buffer for 4 min, incubated for 4 min with chemiluminescence detection reagents. The intensity of the protein bands was measured using GeneTools software from Syngene, which were assessed in the linear detection range.
Isolated pancreatic acini were incubated with either no addition (control), CCK-8 (0.3 and 100 nM) or TPA (1 µM) for the indicated periods of time and then lysed. Western blots were analyzed using anti-pT508 LIMK, anti-pS3 cofilin and anti-pS978 SSH1, which […] the activation states of LIMK, cofilin and SSH1. Bands were visualized using chemiluminescence and quantified by densitometry.

[4] = test system: cofilin / PP1 association; experiment: co-immunoprecipitation of cofilin with PP1 in pancreatic acini; type: cell-based, rat; details: CCK-8 100 nM, 3 min
Protocol: For co-immunoprecipitation, 600 μg of protein was incubated with 15 μL of the anti-cofilin antibody (Santa Cruz Biotechnology, Inc. Dallas, TX) and 25 μL of protein A/G agarose beads (Thermo-Fisher Scientific. Waltham, MA) overnight at 4°C under agitation. Samples were washed three times with lysis buffer, re-suspended in 12.5 μL of Sample Buffer, Laemlii 2x concentrate and boiled for 5 min before western blotting.
FIGURE 6 Effect of CCK-8 (100 nM) to alter co-immunoprecipitation of cofilin with total PP2A (A) or PP1 (B). Isolated pancreatic acini were incubated in the absence or presence of CCK-8 (100 nM) for 3 min and then lysed. Equal amounts of protein were co-immunoprecipitated with an anti-cofilin (Santa Cruz, SC-376476) and then subjected to Western blots using anti-PP2A and anti-PP1. Bands were visualized using chemiluminescence and quantified by densitometry. Top: Results of a representative blot of four independent experiments are shown. Bottom: Means ± S.E. of at least 4 independent experiments. Results are expressed as % of basal stimulation of the control group. N.S., No significant. […] Lysates were analyzed using cofilin (pS3), Total cofilin, PP2A (pY307), Total PP2A, PP1(pT320), Total PP1 and tubulin. […]

C=C1[C@@H](C)[C@H]2[C@H](Cc3ccccc3)NC(=O)[C@]23[C@H](OC(C)=O)/C=C/[C@@](C)(O)C(=O)[C@@H](C)C/C=C/[C@H]3[C@@H]1O [Cytochalasin D]
effect on interaction between actin and cofilin [1]: inhibits the interaction between actin and cofilin

CC(=O)O[C@H]1C(=O)[C@@]2(C)[C@H]([C@H](OC(=O)c3ccccc3)[C@]3(O)C[C@H](OC(=O)[C@H](O)[C@@H](NC(=O)c4ccccc4)c4ccccc4)C(C)=C1C3(C)C)[C@]1(OC(C)=O)CO[C@@H]1C[C@@H]2O [Paclitaxel]
inhibition at 5 µM ([2]; CCK-8 0.3 and 100 nM 3 min, read-out: inhibition of CCK-8-mediated p42/44 phosphorylation): 31 to 41% | inhibition at 5 µM ([2]; TPA 1 µM 5 min, read-out: inhibition of TPA-mediated p42/44 phosphorylation): 27 to 30%

CCCCCCCCCCCCCC(=O)O[C@@H]1[C@@H](C)[C@@]2(O)[C@@H](C=C(CO)C[C@]3(O)C(=O)C(C)=C[C@@H]23)[C@H]2C(C)(C)[C@]12OC(C)=O [TPA, 12-O-tetradecanoylphobol-13-acetate]
effect on LIMK dephosphorylation ([3]; TPA 1 µM): did not cause LIMK dephosphorylation

COOH-terminal octapeptide of cholecystokinin [CCK-8]
time of return of LIMK phosphorylation to basal levels ([3]; CCK-8 0.3 or 100 nM): 30 min | effect on PP1 co-immunoprecipitation with cofilin [4]: had no effect
